According to patent publication US20230416330A1, “Optimized GIP Peptide Analogues” (Antag Therapeutics ApS, priority 2019, published 2023):
Starred links: 1 amine or outer side, 2 acyl side, 3 side chain; linkers in the order of their positions; H or OH if unused. Non-standard residues stand in square brackets, D forms with d. Residues, ends and D or L forms follow the SMILES beside them. Groups on a side chain read outwards from the residue. *: point of attachment. C18 diacid = O=C(O)CCCCCCCCCCCCCCCCC(=O)*; C16 diacid = O=C(O)CCCCCCCCCCCCCCC(=O)*; γGlu = O=C(O)[C@H](CCC(=O)[*:2])N[*:1]; Nle = CCCC[C@H](N)C(=O)O; AEEA = NCCOCCOCC(=O)O; Aib = CC(C)(N)C(=O)O

Assays:
human GIP receptor = target: T1, human GIP receptor (Homo sapiens, UniProt P48546); test: cAMP assay Alternative 1 (CisBio assay), GIPR antagonism; format: cell-based; conditions: Table 2B; % inhibition of Emax
T1 construct: host or cells: HEK-293 cells, transient transfection (Lipofectamine 2000), cDNA in pCMV-Script vector
T1 sequence (P48546 22-466): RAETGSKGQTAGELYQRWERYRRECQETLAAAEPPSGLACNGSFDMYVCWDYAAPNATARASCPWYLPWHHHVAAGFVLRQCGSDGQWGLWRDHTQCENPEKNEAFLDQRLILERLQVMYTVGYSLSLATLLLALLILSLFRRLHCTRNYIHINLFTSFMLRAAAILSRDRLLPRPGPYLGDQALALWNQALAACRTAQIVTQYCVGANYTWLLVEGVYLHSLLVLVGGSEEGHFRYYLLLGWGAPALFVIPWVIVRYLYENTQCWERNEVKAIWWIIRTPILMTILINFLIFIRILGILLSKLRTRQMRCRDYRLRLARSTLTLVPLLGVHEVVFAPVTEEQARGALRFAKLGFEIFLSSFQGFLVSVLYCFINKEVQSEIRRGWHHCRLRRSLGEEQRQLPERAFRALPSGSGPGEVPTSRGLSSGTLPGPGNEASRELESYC
Procedure, shortened: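 HEK293 cells transiently transfected with hGIPR, compounds diluted in HBSS/HEPES/pluronic/casein with 500 uM IBMX; decrease in intracellular cAMP read by HTRF (665/620 nm) and converted via cAMP standard curve. pIC50 from four-parameter fit; agonism tested separately after 30 min at 37° C.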

[1] = Solubility by visual inspection of peptide solutions; format: physicochemical
Procedure, shortened: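 Solubility scored by eye: clear, colorless appearance after gentle mixing. Samples prepared at 1, 5, 7.5 or 15 mg/ml in either pH 7.4 water (NaOH-adjusted) or 50 mM sodium phosphate buffer, pH 7.4.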

[2] = Physical stability: fibril formation in Thioflavin T (ThT) assay with agitation; format: physicochemical; conditions: 25° C., agitation
Procedure, shortened: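 Read-out is continuous ThT fluorescence at 486 nm, with lag time taken where signal reaches 10% between pre- and post-transition baselines. Filtered samples (1, 5, 7.5 or 15 mg/ml; pH 7.4 phosphate buffer or NaOH-adjusted water) were stressed at 25° C. by orbital rotation at 300 rpm with one silica bead per well.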

SMILES | cAMP antagonism % inhib (human GIP receptor) | Visual appearance ([1]; 1 mg/ml, TFA, Phosphate (7.4)) | Visual appearance ([1]; 5 mg/ml, Na, MilliQ (8)) | Visual appearance ([1]; 7.5 mg/ml, Na, MilliQ (8)) | Visual appearance ([1]; 15 mg/ml, Na, MilliQ (8)) | Avr lag time (h) ([2]; 1 mg/ml, TFA, Phosphate (7.4)) | Avr lag time (h) ([2]; 5 mg/ml, Na, MilliQ (8)) | Avr lag time (h) ([2]; 7.5 mg/ml, Na, MilliQ (8)) | Avr lag time (h) ([2]; 15 mg/ml, Na, MilliQ (8)) | Visual appearance ([1]; 1 mg/ml, Na, MilliQ (7.7)) | Avr lag time (h) ([2]; 1 mg/ml, Na, MilliQ (7.7))
CC[C@H](C)[C@H](NC(=O)[C@H](CCCCN)NC(=O)[C@H](CCC(=O)O)NC(=O)[C@H](CC(C)C)NC(=O)C(C)(C)NC(=O)[C@@H](NC(=O)[C@H](CO)NC(=O)[C@H](Cc1ccc(O)cc1)NC(=O)[C@H](CCC(=O)O)NC(=O)[C@H](CO)NC(=O)[C@@H](NC(=O)[C@H](Cc1ccccc1)NC(=O)[C@@H](NC(=O)CNC(=O)[C@@H](N)CCC(=O)O)[C@@H](C)O)[C@@H](C)CC)[C@@H](C)CC)C(=O)N[C@@H](CCCCNC(=O)CCCCCCCCCCCCCCC(=O)O)C(=O)N[C@@H](CCC(N)=O)C(=O)N[C@@H](CCC(N)=O)C(=O)N[C@@H](CCC(=O)O)C(=O)N[C@@H](Cc1ccccc1)C(=O)N[C@H](C(=O)N[C@@H](CCC(=O)O)C(=O)N[C@@H](Cc1c[nH]c2ccccc12)C(=O)N[C@@H](CC(C)C)C(=O)N[C@@H](CC(C)C)C(=O)N[C@@H](C)C(=O)N[C@@H](CCC(N)=O)C(=O)N[C@@H](CCCCN)C(=O)N1CCC[C@H]1C(=O)N[C@@H](CO)C(=O)N[C@@H](CO)C(=O)NCC(=O)N[C@@H](C)C(=O)N1CCC[C@H]1C(=O)N1CCC[C@H]1C(=O)N1CCC[C@H]1C(=O)N[C@@H](CO)C(=O)O)C(C)C [AT673] (H-EGTFISEYSI[Aib]LEKIK(C16 diacid)QQEFVEWLLAQKPSSGAPPPS-OH; N-terminus assumed) | 94% | Clear | Clear | Clear | Clear | fnd (Fnd = fibrils not detected within experiment time (96 hours) with agitation.) | fnd (Fnd = fibrils not detected within experiment time (96 hours) with agitation.) | fnd (Fnd = fibrils not detected within experiment time (96 hours) with agitation.) | fnd (Fnd = fibrils not detected within experiment time (96 hours) with agitation.) |  | 
CC[C@H](C)[C@H](NC(=O)[C@H](CCCCN)NC(=O)[C@H](CC(=O)O)NC(=O)[C@H](CC(C)C)NC(=O)C(C)(C)NC(=O)[C@@H](NC(=O)[C@H](CO)NC(=O)[C@H](Cc1ccc(O)cc1)NC(=O)[C@H](CC(=O)O)NC(=O)[C@H](CO)NC(=O)[C@@H](NC(=O)[C@H](Cc1ccccc1)NC(=O)[C@@H](NC(=O)CNC(=O)[C@@H](N)CCC(=O)O)[C@@H](C)O)[C@@H](C)CC)[C@@H](C)CC)C(=O)N[C@@H](CCCCNC(=O)CCCCCCCCCCCCCCC(=O)O)C(=O)N[C@@H](CCC(N)=O)C(=O)N[C@@H](CCC(N)=O)C(=O)N[C@@H](CC(=O)O)C(=O)N[C@@H](Cc1ccccc1)C(=O)N[C@H](C(=O)N[C@@H](CCC(=O)O)C(=O)N[C@@H](Cc1c[nH]c2ccccc12)C(=O)N[C@@H](CC(C)C)C(=O)N[C@@H](CC(C)C)C(=O)N[C@@H](C)C(=O)N[C@@H](CCC(N)=O)C(=O)N[C@@H](CCCCN)C(=O)N1CCC[C@H]1C(=O)N[C@@H](CO)C(=O)N[C@@H](CO)C(=O)NCC(=O)N[C@@H](C)C(=O)N1CCC[C@H]1C(=O)N1CCC[C@H]1C(=O)N1CCC[C@H]1C(=O)N[C@@H](CO)C(=O)O)C(C)C [AT666] (H-EGTFISDYSI[Aib]LDKIK(C16 diacid)QQDFVEWLLAQKPSSGAPPPS-OH; N-terminus assumed) | 89% | Clear |  |  |  | fnd (Fnd = fibrils not detected within experiment time (96 hours) with agitation.) |  |  |  |  | 
CCCC[C@H](NC(=O)[C@H](C)NC(=O)[C@@H](NC(=O)[C@H](CO)NC(=O)[C@H](Cc1ccc(O)cc1)NC(=O)[C@H](CCC(=O)O)NC(=O)[C@H](CO)NC(=O)[C@@H](NC(=O)[C@H](Cc1ccccc1)NC(=O)[C@@H](NC(=O)CNC(=O)[C@@H](N)CCC(=O)O)[C@@H](C)O)[C@@H](C)CC)[C@@H](C)CC)C(=O)N[C@@H](CCC(=O)O)C(=O)N[C@@H](CCCCN)C(=O)N[C@H](C(=O)N[C@@H](CCCCNC(=O)COCCOCCNC(=O)COCCOCCNC(=O)CC[C@H](NC(=O)CCCCCCCCCCCCCCCCC(=O)O)C(=O)O)C(=O)N[C@@H](CCC(N)=O)C(=O)N[C@@H](CCC(N)=O)C(=O)N[C@@H](CCC(=O)O)C(=O)N[C@@H](Cc1ccccc1)C(=O)N[C@H](C(=O)N[C@@H](CCC(=O)O)C(=O)N[C@@H](Cc1c[nH]c2ccccc12)C(=O)N[C@@H](CC(C)C)C(=O)N[C@@H](CC(C)C)C(=O)N[C@@H](C)C(=O)N[C@@H](CCC(N)=O)C(=O)N[C@@H](CCCCN)C(=O)N1CCC[C@H]1C(=O)N[C@@H](CO)C(=O)N[C@@H](CO)C(=O)NCC(=O)N[C@@H](C)C(=O)N1CCC[C@H]1C(=O)N1CCC[C@H]1C(=O)N1CCC[C@H]1C(=O)N[C@@H](CO)C(=O)O)C(C)C)[C@@H](C)CC [AT694] (H-EGTFISEYSIA[Nle]EKIK([AEEA-AEEA-γGlu-C18 diacid])QQEFVEWLLAQKPSSGAPPPS-OH; N-terminus assumed) | 88% | Clear |  |  |  | fnd (Fnd = fibrils not detected within experiment time (96 hours) with agitation.) |  |  |  |  | 
CC[C@H](C)[C@H](NC(=O)[C@H](CCCCN)NC(=O)[C@H](CCC(=O)O)NC(=O)[C@H](CCSC)NC(=O)C(C)(C)NC(=O)[C@@H](NC(=O)[C@H](CO)NC(=O)[C@H](Cc1ccc(O)cc1)NC(=O)[C@H](CCC(=O)O)NC(=O)[C@H](CO)NC(=O)[C@@H](NC(=O)[C@H](Cc1ccccc1)NC(=O)[C@@H](NC(=O)CNC(=O)[C@@H](N)CCC(=O)O)[C@@H](C)O)[C@@H](C)CC)[C@@H](C)CC)C(=O)N[C@@H](CCCCNC(=O)CCCCCCCCCCCCCCC(=O)O)C(=O)N[C@@H](CCC(N)=O)C(=O)N[C@@H](CCC(N)=O)C(=O)N[C@@H](CC(=O)O)C(=O)N[C@@H](Cc1ccccc1)C(=O)N[C@H](C(=O)N[C@@H](CCC(=O)O)C(=O)N[C@@H](Cc1c[nH]c2ccccc12)C(=O)N[C@@H](CC(C)C)C(=O)N[C@@H](CC(C)C)C(=O)N[C@@H](C)C(=O)N[C@@H](CCC(N)=O)C(=O)N[C@@H](CCCCN)C(=O)N1CCC[C@H]1C(=O)N[C@@H](CO)C(=O)N[C@@H](CO)C(=O)NCC(=O)N[C@@H](C)C(=O)N1CCC[C@H]1C(=O)N1CCC[C@H]1C(=O)N1CCC[C@H]1C(=O)N[C@@H](CO)C(=O)O)C(C)C [AT616] (H-EGTFISEYSI[Aib]MEKIK(C16 diacid)QQDFVEWLLAQKPSSGAPPPS-OH; N-terminus assumed) | 100% |  |  |  |  |  |  |  |  | Clear | fnd (Fnd = fibrils not detected within experiment time (96 hours) with agitation.)
CC[C@H](C)[C@H](NC(=O)[C@H](CO)NC(=O)[C@H](Cc1ccc(O)cc1)NC(=O)[C@H](CCC(=O)O)NC(=O)[C@H](CO)NC(=O)[C@@H](NC(=O)[C@H](Cc1ccccc1)NC(=O)[C@@H](NC(=O)CNC(=O)[C@@H](N)CCC(=O)O)[C@@H](C)O)[C@@H](C)CC)C(=O)N[C@@H](C)C(=O)N[C@@H](CC(C)C)C(=O)N[C@@H](CCC(=O)O)C(=O)N[C@@H](CCCCN)C(=O)N[C@H](C(=O)N[C@@H](CCCCNC(=O)COCCOCCNC(=O)COCCOCCNC(=O)CC[C@H](NC(=O)CCCCCCCCCCCCCCCCC(=O)O)C(=O)O)C(=O)N[C@@H](CCC(N)=O)C(=O)N[C@@H](CCC(N)=O)C(=O)N[C@@H](CCC(=O)O)C(=O)N[C@@H](Cc1ccccc1)C(=O)N[C@H](C(=O)N[C@@H](CCC(=O)O)C(=O)N[C@@H](Cc1c[nH]c2ccccc12)C(=O)N[C@@H](CC(C)C)C(=O)N[C@@H](CC(C)C)C(=O)N[C@@H](C)C(=O)N[C@@H](CCC(N)=O)C(=O)N[C@@H](CCCCN)C(=O)N1CCC[C@H]1C(=O)N[C@@H](CO)C(=O)N[C@@H](CO)C(=O)NCC(=O)N[C@@H](C)C(=O)N1CCC[C@H]1C(=O)N1CCC[C@H]1C(=O)N1CCC[C@H]1C(=O)N[C@@H](CO)C(=O)O)C(C)C)[C@@H](C)CC [AT693] (H-EGTFISEYSIALEKIK([AEEA-AEEA-γGlu-C18 diacid])QQEFVEWLLAQKPSSGAPPPS-OH; N-terminus assumed) | 96% | Clear |  |  |  | fnd (Fnd = fibrils not detected within experiment time (96 hours) with agitation.) |  |  |  |  | 
